pIC50: −log10 of the molar value.
Tests used:
[1] = target: His-tagged KRAS G12D protein (Homo sapiens (Human), UniProt P01116, G12D); assay: KRAS G12D TR-FRET Assay; assay type: binding; settings: read-out: KRAS G12D Binding IC50
Outline: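 Each incubation ran at room temperature: enzyme with compound for 30 minutes, peptide for one hour, and detection reagents (0.4 nM europium anti-6×His, 5 nM streptavidin-d2) for one hour more. Protein and peptide stocks were each diluted to 20 nM before addition.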

[2] = target: GDP-bound KRAS protein (aa 1-169), containing both G12D and C118A amino acid substitutions (Homo sapiens (Human), UniProt P01116, C118A/G12D); assay: KRAS G12D Coupled Nucleotide Exchange Assay; assay type: biochemical; settings: read-out: KRAS G12D Coupled Exchange IC50
[3] = system: Phosphorylation of ERK1/2 in AsPC-1 cells; assay: Phospho-ERK1/2 MSD Assay; assay type: cell-based, human; settings: Homo sapiens, ASPC1, 2 h, read-out: 2 h p-ERK (AsPC-1 cells), IC50
Experimental: AsPC-1 (ATCC® CRL-1682™) cells were cultured in RPMI 1640 Medium (ThermoFisher Scientific 11875093) containing 10% fetal bovine serum (ThermoFisher Scientific 16000044) and 1× penicillin-streptomycin-glutamine (ThermoFisher Scientific 10378016). Sixteen hours prior to compound treatment, AsPC-1 cells were seeded in 96-well cell culture plates at a density of 25,000 cells/well and incubated at 37° C., 5% CO2. A compound dose-response titration was diluted in growth media, added to appropriate wells of a cell culture plate, and then incubated at 37° C., 5% CO2 for 2 hours. Following compound treatment, cells were washed with ice-cold Dulbecco's phosphate-buffered saline, no Ca^2+ or Mg^2+ (ThermoFisher Scientific 14190144), and then lysed in RIPA buffer (50 mM Tris-HCl pH 7.5, 1% Igepal, 0.5% sodium deoxycholate, 150 mM NaCl, and 0.5% sodium dodecyl sulfate) containing protease inhibitors (Roche 4693132001) and phosphatase inhibitors (Roche 4906837001). Phosphorylation of ERK1/2 in compound-treated lysates was assayed using Phospho-ERK1/2 Whole Cell Lysate kits (Meso Scale Discovery K151DWD) according to the manufacturer's protocol. Assay plates were read on a Meso Scale Discovery Sector Imager 6000, and data were analyzed using a 4-parameter logistic model to calculate IC50 values.

His-tagged KRAS G12D protein, sequence (P01116 other isoform, or with tags, fused parts or gaps G12D): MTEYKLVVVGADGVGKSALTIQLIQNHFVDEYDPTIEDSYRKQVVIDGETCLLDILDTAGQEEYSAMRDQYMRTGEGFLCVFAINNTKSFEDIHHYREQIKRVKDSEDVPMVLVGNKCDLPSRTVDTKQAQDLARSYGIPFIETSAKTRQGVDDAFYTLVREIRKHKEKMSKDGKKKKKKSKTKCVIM
GDP-bound KRAS protein (aa 1-169), containing both G12D and C118A amino acid substitutions, sequence (P01116 other isoform, or with tags, fused parts or gaps G12D/C118A): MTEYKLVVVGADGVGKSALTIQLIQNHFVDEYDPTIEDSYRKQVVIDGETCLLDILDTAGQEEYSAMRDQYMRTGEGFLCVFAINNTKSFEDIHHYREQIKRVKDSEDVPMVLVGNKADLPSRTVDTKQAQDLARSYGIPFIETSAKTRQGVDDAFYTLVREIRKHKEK

| Compound | pIC50 [1] | pIC50 [2] | pIC50 [3] | IC50 [2] [nM] |
| --- | --- | --- | --- | --- |
| CN1C(=O)OCCCc2c(Cl)cc3[nH]ncc3c2-c2ncc3c(nc(OC[C@@]45CCCN4C[C@H](F)C5)nc3c2F)N2C[C@@H](O)C[C@@H]1C2 [Example 286, (17R,19S)-9-chloro-30-fluoro-24-(((2R,7aS)-2-fluorotetrahydro-1H-pyrrolo[1,2-a]pyrrol-7a(5H)-yl)methoxy)-19-hydroxy-16-methyl-14-oxa-5,6,16,21,23,25,29-heptaazahexacyclo[24.3.1.1~17,21~.0~2,10~.0~3,7~.0~22,27~]hentriaconta-1(30),2,4,7,9,22,24,26,28-nonaen-15-one] | 7.09 | 7.82 | 5.90 |  |
| O=C1N[C@@H]2CN(C[C@@H]3C[C@@H]32)c2nc(OC[C@@]34CCCN3C[C@H](F)C4)nc3c(F)c(ncc23)-c2c(c(Cl)cc3[nH]ncc23)CCC[C@@H]1F [Example 174, (23S,26S,27S,29R)-18-chloro-23,32-difluoro-4-(((2R,7aS)-2-fluorotetrahydro-1H-pyrrolo[1,2-a]pyrrol-7a(5H)-yl)methoxy)-1,3,5,9,14,15,25-heptaazaheptacyclo[24.4.1.1~6,10~.0~2,7~.0~11,19~.0~12,16~.0~27,29~]dotriaconta-2,4,6,8,10(32), 11,13,16,18-nonaen-24-one] | 8.30 | 8.52 | 7.27 |  |
| Cc1cc2[nH]ncc2c2c1CCCC(=O)OCC1(O)CCCN(C1)c1nc(OC[C@@]34CCCN3C[C@H](F)C4)nc3c(F)c-2ncc13 (mixture of isomers) [Example 103] | 7.51 | 7.49 | 5.70 |  |
| Cc1cc2[nH]ncc2c2c1CCCCC(=O)N1CC3(CCCN(C3)c3nc(OC[C@@]45CCCN4C[C@H](F)C5)nc4c(F)c-2ncc34)C1 [Example 56, 32-fluoro-24-(((2R,7aS)-2-fluorotetrahydro-1H-pyrrolo[1,2-a]pyrrol-7a(5H)-yl)methoxy)-10-methyl-3,13,14,19,23,25,27-heptaazaheptacyclo[25.3.1.1~1,3~.1~18,22~.0~9,17~.0~12,16~.0~21,26~]tritriaconta-9,11,14,16,18(32),19,21,23,25-nonaen-4-one] | 7.70 | 7.96 | 5.63 |  |
| O=C1OCCc2c(F)ccc3cccc(c23)-c2ncc3c(nc(OC[C@@]45CCCN4C[C@H](F)C5)nc3c2F)N2CCOC[C@H](C2)O1 [Example 371] | 8.10 | 8.40 | 6.62 |  |
| Cc1cc2[nH]ncc2c2c1CCCOC(=O)N1CC[C@@H]3CCN(C[C@@H]31)c1nc(OC[C@@]34CCCN3C[C@H](F)C4)nc3c(F)c-2ncc13 (mixture of isomers) [Example 75, (28S,32R)-33-fluoro-4-(((2R,7aS)-2-fluorotetrahydro-1H-pyrrolo[1,2-a]pyrrol-7a(5H)-yl)methoxy)-18-methyl-23-oxa-1,3,5,9,14,15,25-heptaazaheptacyclo[23.5.2.1~6,10~.0~2,7~.0~11,19~.0~12,16~.0~28,32~]tritriaconta-2,4,6,8,10(33),11,13,16,18-nonaen-24-one] |  |  | 6.67 |  |
| C[C@@H](Oc1nc2c3cnc(c(F)c3n1)-c1c(c(Cl)cc3[nH]ncc13)CCCOC(=O)O[C@@H]1COCCN2C1)[C@@H]1CCCN1C [Example 203, (26S)-18-chloro-32-fluoro-4-((1R)-1-((2S)-1-methyl-2-pyrrolidinyl)ethoxy)-23,25,28-trioxa-1,3,5,9,14,15-hexaazahexacyclo[24.4.1.1~6,10~.0~2,7~.0~11,19~.0~12,16~]dotriaconta-2,4,6,8,10(32),11,13,16,18-nonaen-24-one] | 7.77 | 8.10 | 6.77 |  |
| Cc1cc2[nH]ncc2c2c1[C@H]1C[C@@H]1COC(=O)O[C@@H]1CCCN(C1)c1nc(OC[C@@]34CCCN3C[C@H](F)C4)nc3c(F)c-2ncc13 (racemic) [Example 114] | 7.72 |  | 6.46 | 12 |
| O=C1CC2CCCN(C2)c2nc(OC[C@@]34CCCN3C[C@H](F)C4)nc3c(F)c(ncc23)-c2cccc3cccc(c23)CCO1 (stereo partly shown) [Example 88] | 7.72 | 7.96 | 5.80 |  |
| O=C1OC/C=C/c2c(Cl)cc3[nH]ncc3c2-c2ncc3c(nc(OC[C@@]45CCCN4C[C@H](F)C5)nc3c2F)N2CCC[C@H](C2)O1 (single isomer, unassigned) [Example 116] | 7.77 | 7.92 | 6.57 |  |
| C[C@H]1CCOC[C@H]2CN(CCO2)c2nc(OC[C@@]34CCCN3C[C@H](F)C4)nc3c(F)c(ncc23)-c2c(c(Cl)cc3[nH]ncc23)C1 [Example 252, (12R,17R)-9-chloro-30-fluoro-24-(((2R,7aS)-2-fluorotetrahydro-1H-pyrrolo[1,2-a]pyrrol-7a(5H)-yl)methoxy)-12-methyl-15,18-dioxa-5,6,21,23,25,29-hexaazahexacyclo[24.3.1.1~17,21~.0~2,10~.0~3,7~.0~22,27~]hentriaconta-1(30),2,4,7,9,22,24,26,28-nonaene] | 7.55 | 7.77 | 6.03 |  |
| O=C1CCCOc2ccc3[nH]ncc3c2-c2ncc3c(nc(OC[C@@]45CCCN4C[C@H](F)C5)nc3c2F)N2CCC[C@H](C2)O1 [Example 30, (17R)-30-Fluoro-24-(((2R,7aS)-2-fluorotetrahydro-1H-pyrrolo[1,2-a]pyrrol-7a(5H)-yl)methoxy)-11,16-dioxa-5,6,21,23,25,29-hexaazahexacyclo[24.3.1.1˜17,21˜.0˜2,10˜.0˜3,7˜.0˜22,27˜]hentriaconta-1(30),2,4,7,9,22,24,26,28-nonaen-15-one] | 6.92 | 6.85 | 5.84 |  |
| Cc1cc2[nH]ncc2c2c1CCCCC(=O)N[C@@H]1CCCN(C1)c1nc(OC[C@@]34CCCN3C[C@H](F)C4)nc3c(F)c-2ncc13.O=C(O)C(F)(F)F [Example 48, (17R)-30-fluoro-24-(((2R,7aS)-2-fluorotetrahydro-1H-pyrrolo[1,2-a]pyrrol-7a(5H)-yl)methoxy)-9-methyl-5,6,16,21,23,25,29-heptaazahexacyclo[24.3.1.1˜17,21˜.0˜2,10˜.0˜3,7˜.0˜22,27˜]hentriaconta-1(30),2,4,7,9,22,24,26,28-nonaen-15-one 2,2,2-trifluoroacetate] | 7.85 |  | 6.03 | 13 |
| O=C1CCCCc2c(C(F)(F)F)cc3[nH]ncc3c2-c2ncc3c(nc(OC[C@@]45CCCN4C[C@H](F)C5)nc3c2F)N2CCC[C@H](C2)O1 [Example 87, (17R)-30-fluoro-24-(((2R,7aS)-2-fluorotetrahydro-1H-pyrrolo[1,2-a]pyrrol-7a(5H)-yl)methoxy)-9-(trifluoromethyl)-16-oxa-5,6,21,23,25,29-hexaazahexacyclo[24.3.1.1~17,21~.0~2,10~.0~3,7~.0~22,27~]hentriaconta-1(30),2,4,7,9,22,24,26,28-nonaen-15-one] | 7.62 | 7.64 | 6.38 |  |
| Fc1c2ncc3c(nc(OC[C@@]45CCCN4C[C@H](F)C5)nc13)N1CCCC(C1)c1cnc(o1)CCCc1c(Cl)cc3[nH]ncc3c1-2 (stereo partly shown) [Example 255] | 8.00 | 8.05 | 7.11 |  |
| Cc1cc2[nH]ncc2c2c1CCOC(=O)OC[C@H]1CN(CCO1)c1nc(OC[C@@]34CCCN3C[C@H](F)C4)nc3c(F)c-2ncc13 [Example 218] | 8.40 | 8.52 | 7.56 |  |
| O=C1OCCc2c(Cl)cc3[nH]ncc3c2-c2ncc3c(nc(OC[C@@]45CCCN4C[C@H](F)C5)nc3c2F)N2CCC[C@@]3(C[C@H](CO3)O1)C2 [Example 314, (1R,4R)-11-chloro-33-fluoro-25-(((2R,7aS)-2-fluorotetrahydro-1H-pyrrolo[1,2-a]pyrrol-7a(5H)-yl)methoxy)-2,5,7-trioxa-14,15,20,24,26,28-hexaazaheptacyclo[26.3.1.1~1,4~.1~19,23~.0~10,18~.0~13,17~.0~22,27~]tetratriaconta-10,12,15,17,19(33),20,22,24,26-nonaen-6-one] |  |  | 6.23 |  |
| CN1C(=O)COCC[C@@H]2CCc3cc4[nH]ncc4c(c32)-c2ncc3c(nc(OC[C@@]45CCCN4C[C@H](F)C5)nc3c2F)N2CCC[C@@H]1C2 [Example 279, (15R,22S)-34-fluoro-8-(((2R,7aS)-2-fluorotetrahydro-1H-pyrrolo[1,2-a]pyrrol-7a(5H)-yl)methoxy)-16-methyl-19-oxa-3,7,9,11,16,28,29-heptaazaheptacyclo[20.9.1.1~2,6~.1~11,15~.0~5,10~.0~25,32~.0~27,31~]tetratriaconta-1(31),2(34),3,5,7,9,25(32),26,29-nonaen-17-one] | 6.48 | 7.15 |  |  |

Source: patent US20240294551A1 (AMGEN INC., priority 2022, published 2024)
